According to PMC6968383, “Design, synthesis, in vitro and in vivo evaluation of benzylpiperidine-linked 1,3-dimethylbenzimidazolinones as cholinesterase inhibitors against Alzheimer’s disease” (Journal of Enzyme Inhibition and Medicinal Chemistry, 2019):

How the values were obtained:
[1] = target: T1, BChE (EC 3.1.1.8) from human (Homo sapiens, UniProt P06276); assay: human BChE inhibition assay, Ellman's method; type: biochemical; conditions: mean ± SEM, read-out: huBChE IC50
T1 construct: purchased Sigma-Aldrich
T1 sequence (P06276 29-602): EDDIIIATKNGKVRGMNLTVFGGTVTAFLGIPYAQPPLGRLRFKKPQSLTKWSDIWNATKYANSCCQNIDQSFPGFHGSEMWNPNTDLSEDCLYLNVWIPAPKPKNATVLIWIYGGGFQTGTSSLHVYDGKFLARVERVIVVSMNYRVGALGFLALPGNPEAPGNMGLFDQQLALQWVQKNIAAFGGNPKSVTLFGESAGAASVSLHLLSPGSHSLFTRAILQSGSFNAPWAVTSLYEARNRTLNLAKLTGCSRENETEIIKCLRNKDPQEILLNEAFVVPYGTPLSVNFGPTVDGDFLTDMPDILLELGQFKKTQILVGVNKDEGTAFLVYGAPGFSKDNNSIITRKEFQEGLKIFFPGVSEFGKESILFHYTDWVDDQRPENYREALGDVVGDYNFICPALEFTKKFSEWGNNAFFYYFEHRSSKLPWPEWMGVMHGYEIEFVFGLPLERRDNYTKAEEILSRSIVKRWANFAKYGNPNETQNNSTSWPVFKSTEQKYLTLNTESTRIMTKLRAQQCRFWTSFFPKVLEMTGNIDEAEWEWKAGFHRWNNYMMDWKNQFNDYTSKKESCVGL
Method: (§1) ; The inhibitory activities of the target compounds towards AChE (from Electrophorus electricus (electric eeAChE, Sigma-Aldrich) and horse serum BChE (eqBChE, Sigma-Aldrich) or human AChE – huAChE; human BuChE – huBuChE (huAChE, huBuChE, Sigma-Aldrich) were measured by Ellman’s method. In 96-well plates, a mixture of phosphate buffer (0.1 M, pH 8.0, […]), 5,5′-dithiobis-2-nitrobenzoic acid (DTNB, 60 µL), acetylcholinestrase or butyrylcholinesterase (20 µL, 5 IU/mL) and different concentration of the compound solution (30 µL) was pre-incubated for 5 min followed by the addition of the substrate (acetylthiocholine iodide or butyrylthiocholine iodide, 20 µL). Changes in absorbance were measured at 412 nm by using microplate reader (Thermo, Varioskan Flash 3001, USA). The measurement of each concentration for each compound was detected in triplicate. GraphPad Prism 6.0 (GraphPad Software, Inc., La Jolla, CA) was used for data processing. The inhibition curve was fitted by plotting percentage enzyme activity (100% for the reference) versus the logarithm of the concentration of tested compound. The half-maximal inhibitory concentration (IC50) values were calculated according to the inhibition curve and the data were shown in the layout of mean ± SEM by GraphPad Prism 6.0.

[2] = target: T2, AChE (EC 3.1.1.7) from human (Homo sapiens, UniProt P22303); assay: human AChE inhibition assay, Ellman's method; type: biochemical; conditions: for IC50: human AChE, mean ± SEM, read-out: huAChE IC50
T2 construct: purchased Sigma-Aldrich
T2 sequence (P22303 32-614): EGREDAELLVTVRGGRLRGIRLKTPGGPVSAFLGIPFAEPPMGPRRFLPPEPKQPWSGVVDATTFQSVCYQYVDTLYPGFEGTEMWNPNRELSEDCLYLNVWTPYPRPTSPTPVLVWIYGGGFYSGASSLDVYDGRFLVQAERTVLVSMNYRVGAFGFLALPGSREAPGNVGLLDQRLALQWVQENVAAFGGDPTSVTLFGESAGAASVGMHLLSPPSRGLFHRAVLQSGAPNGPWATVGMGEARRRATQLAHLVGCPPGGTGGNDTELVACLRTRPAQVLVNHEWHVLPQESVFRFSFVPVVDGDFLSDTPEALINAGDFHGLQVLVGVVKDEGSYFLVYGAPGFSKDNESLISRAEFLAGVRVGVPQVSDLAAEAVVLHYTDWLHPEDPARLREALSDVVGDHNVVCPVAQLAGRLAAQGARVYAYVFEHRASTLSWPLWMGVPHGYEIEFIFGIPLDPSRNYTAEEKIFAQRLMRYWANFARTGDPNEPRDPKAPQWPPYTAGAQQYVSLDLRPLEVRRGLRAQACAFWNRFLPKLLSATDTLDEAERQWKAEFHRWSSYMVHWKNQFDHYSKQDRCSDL
Method: as §1

Aβ1–42 = target: T3, Aβ1–42 (Homo sapiens, UniProt P05067); assay: Inhibition of self-induced Aβ1–42 aggregation (thioflavin T); type: biochemical; conditions: under 50 µM, ThT fluorometric assay
T3 construct: self-induced Aβ1–42 aggregation; purchased Anaspec Inc. AS-64129–05
T3 sequence (P05067 672-713): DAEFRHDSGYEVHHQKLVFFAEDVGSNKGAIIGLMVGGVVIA
Method: Compounds 15b and 15j were evaluated for their inhibitory capacity on self-induced Aβ1–42 aggregation based on a thioflavin T-based fluorometric assay. […]
Corresponding Authors: clarissa0710@163.com (Y. Chen); sunhaopeng@163.com (H. P.
1.1. Inhibition of self-induced Aβ1–42 aggregation
Inhibitory effect of the compounds on self -induced Aβ1–42 aggregation was determined through a thioflavin T (ThT)-(T3516, Sigma-Aldrich) binding assay.
Firstly, aliquots of 2 μL of Aβ 1–42 (AS-64129–05 Anaspec Inc.) containing 2 mg/mL HFIP (1,1,1,3,3,3-hexafluoro-2-propanol, 52517 (Sigma-Aldrich) were stocked in DMSO).
Then, they were diluted with 0.215M sodium phosphate buffer (pH 8.0) to the final concentration of 500 μM. Test compounds were dissolved in DMSO and then prepared at a concentration of 50 μM by the buffer. Resveratrol was used as a positive control. […]
Fluorescence intensity was read (excitation wavelength 450 nm, emission wavelength 485 nm) on a microplate reader (Thermo, Varioskan Flas h 3001, USA).
The calculation of the inhibitory rate of Aβ 1–42 self-induced aggregation was performed using the following equation: (1 -IFi/IFc) × 100 %. IFi and IFc were the fluorescence intensities measured in the presence and absence of inhibitors, respe ctively, after subtracting the background fluorescence of the 5mM ThT solution. Each compound was measured in triplicate. […]

HepG2 cells = assay: In vitro hepatotoxicity on HepG2 cell line (MTT); type: cell-based; conditions: 5, 15, 50 µM, 24 h, compared to donepezil
Method: PC12 cell and HepG2 cell (human hepatocellular liver carcinoma cell line purchased from Institute of Materia of Chinese Academy of Medical Science), were grown in DMEM supplemented with 10% FBS at 37 °C in a humidified atmosphere containing 5% CO2. For the experiments, cells (6 × 10^3 cells/well) were seeded in 96-well plate in complete medium. […]

PC12 cells = assay: Neuroprotection against H2O2-induced cell death in PC12 cells; type: cell-based; conditions: PC12 cells pre-treated 24 h, 800 µM H2O2
Method: We evaluated the cytoprotective effects of 15b and 15j on H2O2-induced cell damage. Treatment with 800 µM H2O2 for 24 h caused over 55% death rate of PC12 cells compared with the control group (Supplementary Figure S2(A)).
Figure S1. (A) The inhibitory effect of 15b and 15j on i Aβ1-42 self-aggregation. (B) […]
1.3. Neuroprotection assay against H2O2-induced cell death in PC12 cells Cytotoxicity was determined by using 3-(4,5-dimethylthiazol-2-yl)-2,5-diphenyltetrazoliumbromide (MTT) assay. The PC-12 cell line was purchased from Cell Bank of the Chinese Academy of Sciences (Shanghai, China). MTT was purchased from Sigma (M2128, St. Louis, MO). It was dissolved in phosphate buffered saline (PBS) to a stock concentration of 5 mg mL-1 and stored at - 20 °C. PC-12 cells were plated in 96-well plates, raised to a population of 1 × 10^4 cells per well, and incubated overnight. […]
Then the solution was removed and 150.0 μL of DMSO was added into each well to dissolve the MTT formazan crystals. […] The absorbance values (OD value) were read at 570 nm by microplate reader (Thermo, Varioskan Flash 3001, USA). The inhibitory rate for each concentration of the test compound was calculated by the equation as follows: […]
Here, ODtest, ODblank, and ODcontrol stand for the OD value from test compound, background, and DMSO, respectively. The IC50 values were calculated by GraphPad […]

liver = assay: Liver histopathological study (HE staining); conditions: 36 h after administration, compared to control group
From the text: Figure 7. […] HE staining, original magnification ×200.

Row | SMILES | IC50 [1] | IC50 [2] | inhibition of self-induced Aβ1–42 aggregation (Aβ1–42) | toxicity on HepG2 cell viability (HepG2 cells) | cytoprotective effect on H2O2-induced cell damage (PC12 cells) | morphologic changes in liver (liver) | SI (selectivity index = AChE IC50/BChE IC50) ([2]; huAChE IC50 / huBChE IC50)
1 | Cc1ccccc1CN1CCC(CNS(=O)(=O)c2ccc3c(c2)n(C)c(=O)n3C)CC1 [Compound 15b, 1,3-dimethyl-N-((1–(2-methylbenzyl)piperidin-4-yl)methyl)-2-oxo-2,3-dihydro-1H-benzo[d]imidazole-5-sulphonamide] | 1330 ± 550 nM | 1490 ± 430 nM | no inhibitory activities | low toxicity on cell viability | the mortality rate of PC12 cells caused by H2O2 was reduced | did not result in remarkable morphologic changes in liver | –
2 | Cn1c(=O)n(C)c2cc(S(=O)(=O)NCC3CCN(Cc4cccc(Br)c4)CC3)ccc21 [Compound 15j, N-((1–(3-bromobenzyl)piperidin-4-yl)methyl)-1,3-dimethyl-2-oxo-2,3-dihydro-1H-benzo[d]imidazole-5-sulphonamide] | 660 ± 220 nM | 1250 ± 480 nM | no inhibitory activities | low toxicity on cell viability | the mortality rate of PC12 cells caused by H2O2 was reduced | did not result in remarkable morphologic changes in liver | 1.89
